This note sets out measurements from patent US20110201568A1, “PHYOTOCHEMICAL COMPOSITION AND A PROCESS THEREOF” (priority 2008, published 2011).

Values after ≈ are worked out from the molar mass of the structure shown. Like-named read-outs stand apart in the source and are kept apart here.

Experiment [1] has as its system Helicobacter pylori. Nature of the experiment: Anti Helicobacter pylori activity, overall observations. As to conditions: strains 80A and ATCC 43504. It is filed as cell-based.
Experiment [2] concerns Helicobacter pylori standard strain ATCC 43504. Nature of the experiment: MIC/MBC microbroth dilution assay, strain ATCC 43504. The class given is cell-based. As to conditions: ATCC43504, cell count ~10^6-10^7 CFU/ml. The method, then:
(§1) • MICs of the two samples were determined employing one clinical (80A) and one standard (ATCC 43504) strain (Osato, 2000). • Two-fold serial dilutions of the samples were performed in 96-well microtitre plate. • Plates were kept for appropriate time in Incubator under optimum growth condition. • Following incubation, the plates were examined visually, and the lowest concentration showing complete inhibition of growth was recorded as the MIC of the respective sample.
(§2) • Aliquots of culture in which no growth had been detected were taken from the wells of the above microtitre plates and used to streak on fresh agar plates. • MBCs were determined by visual inspection of such plates after further incubation and the point where no growth (less than 10 colony) appeared was considered as the MBCs.

In experiment [3] the test system is Helicobacter pylori clinical strain 80A. The experiment is described as follows: MIC/MBC microbroth dilution assay, strain 80A. The class given is cell-based. As to conditions: cell count ~10^6-10^7 CFU/ml. How it is done: as §1, §2
In experiment [4] the test system is Helicobacter pylori standard strain ATCC 43504. Nature of the experiment: Anti Helicobacter pylori disc diffusion sensitivity assay, standard strain ATCC 43504. As to conditions: 40 ng/disc (standard drug). It is filed as cell-based. How it is done:
(§3) For water containing sample, discs were first placed on the plate and then 5-10 μl of each sample, was added. The results are shown in below table: 10.

Experiment [5] has as its system Helicobacter pylori clinical strain 80A. The experiment is described as follows: Anti Helicobacter pylori disc diffusion sensitivity assay, clinical strain 80A. It is filed as cell-based. As to conditions: 10 ng/disc (standard drug). The method, then: as §3
Background: A growth-free zone around the sample is the usual read-out of agar diffusion tests.

The target in experiment [6] is porcine pancreatic elastase (Sus scrofa, UniProt P00772). The experiment is described as follows: Elastase inhibition assay. The class given is biochemical. How it is done: In brief, 233 μl of each test solutions/reference standard (various concentrations) in 100 mM Tris-HCl pH8.0 and 7 μl of enzyme (porcine pancreatic elastase, 0.84 units/ml) solution was incubated at 37° C. for 15 mins. Following incubation, 20 μl of substrate (n-succinyl-ala-ala-ala-p-nitroanilide) solution was added and incubated at 37° C. for 30 mins. The absorbance was measured at 405 nm. A control reaction was carried out without the test sample. The percentage inhibition was calculated by the equation [absorbance (control)−absorbance (test)]/absorbance (control)×100]. The IC50 values were determined using log-probit analysis.
porcine pancreatic elastase, sequence (P00772 27-266): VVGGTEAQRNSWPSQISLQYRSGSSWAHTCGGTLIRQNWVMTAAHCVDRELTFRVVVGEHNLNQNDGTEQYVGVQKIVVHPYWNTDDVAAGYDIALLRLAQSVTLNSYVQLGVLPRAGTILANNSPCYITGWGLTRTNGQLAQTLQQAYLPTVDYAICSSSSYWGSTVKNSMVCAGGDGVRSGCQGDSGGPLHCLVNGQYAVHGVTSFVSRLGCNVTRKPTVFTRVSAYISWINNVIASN

Experiment [7] deals with pylorus ligation induced ulcer. The experiment is described as follows: Pylorus ligation induced ulcer model. To be noted: 10 mg/kg; mean ± SEM, n = 6. It is filed as in vivo, albino Wistar rats. From the text:
Details of the study are provided in the below table: 4. [table]

Experiment [8] relates to cold stress induced ulcer. The experiment is described as follows: Cold stress induced ulcer model. It is filed as in vivo, albino Wistar rats.
Setting [9] is: porcine pancreatic elastase, log-probit analysis, read-out: IC50 in elastase inhibition assay (converted).

A word on the MBC: it is the smallest concentration meeting the test's criterion for killing. A higher MBC goes with weaker bactericidal potency. The MIC is the lowest concentration found to suppress growth. The IC50 is the midpoint of a concentration-inhibition curve.

Consider `CC[C@H]1OC(=O)[C@H](C)[C@@H](O[C@H]2C[C@@](C)(OC)[C@@H](O)[C@H](C)O2)[C@H](C)[C@@H](O[C@@H]2O[C@H](C)C[C@H](N(C)C)[C@H]2O)[C@](C)(OC)C[C@@H](C)C(=O)[C@H](C)[C@@H](O)[C@]1(C)O` [Clarithromycin], for which the “anti Helicobacter pylori activity (disc diffusion observation)” value in experiment [1] is “showed appropriate zone of inhibition”. In experiment [2], the MBC was 0.05 µg/mL (≈ 0.0668 µM) and the MIC amounted to 0.025 µg/mL (≈ 0.0334 µM). In experiment [3], this molecule gave an MBC of 0.025 µg/mL (≈ 0.0334 µM) and an MIC of 0.013 µg/mL (≈ 0.0174 µM). Besides, the “Inhibition Zone Diameter in strain ATCC 43504” value in experiment [4] was 1.8-2.0 cm. Moreover, the “Inhibition Zone Diameter in strain 80A” value in experiment [5] is listed as 1.8-2.0 cm.
As to `CCCCCCCCCCCCCCCCCCCCCCOC(=O)/C=C/c1ccc(O)c(O)c1` [Docosyl caffeate (2), docosyl caffeate], in experiment [6] (setting [9]), the IC50 was 2860 nM.
As to `CCCCCCCCCCCCCCCCCCCCOC(=O)/C=C/c1ccc(O)c(O)c1` [Eicosanyl caffeate(1), eicosanyl caffeate], the half-inhibitory concentration (IC50) in experiment [6] (setting [9]) was 2150 nM.
In experiment [7], `COc1ccc2[nH]c([S+]([O-])Cc3ncc(C)c(OC)c3C)nc2c1` (centres unmarked) [Omeprazole] returned a Gastric content of 2.42 ± 0.24 mL, a Total acidity of 15.33 ± 0.92 mEq/L/100 g, a Ulcer index of 3.33 ± 1.38 and a pH of 6.89 ± 0.14. Also, in experiment [8] (10 mg/kg, mean ± SEM, n = 6), the Ulcer index was determined as 0.67 ± 0.49 and the pH is on record as 6.50 ± 0.22. Also, the pH of stomach result in experiment [8] (comparison Table 12 remark, ulcer model not specified) was “the pH to more than 6”.
In experiment [6], `C[C@H]1[C@H](C)CC[C@]2(C(=O)O)CC[C@]3(C)C(=CC[C@@H]4[C@@]5(C)CC[C@H](O)C(C)(C)[C@@H]5CC[C@]43C)[C@H]12` [Ursolic acid] showed a 50% inhibitory concentration (IC50) of 23600 nM.
